Measurements as given in US12643913B2, “Mcl-1 inhibitor formulations” (AMGEN INC., priority 2020, dated 2026).
Values after ≈ are worked out from the molar mass of the structure shown. Read-outs that look alike come from different tables or passages of the source.

Key:
[1] = Solubility of AMG 397 in common spray-drying solvents; type: physicochemical
Procedure: Solvent selection: The solubility of AMG 397 was measured in solvents commonly used for spray drying. […] Based on the solubility data, tetrahydrofuran (THF) was selected as a solvent for the initial spray drying-work and further work was conducted in DCM.
AMG 397 is known to form solvates with many solvents. The formation of a solvate can lead to precipitation from solution due to the lower solubility in the solvent. Care must be taken to select a solvent and concentration of AMG 397 which can be maintained for the duration of the spray-drying process. The solubility of AMG 397 was highest in DCM where concentrations >100 mg/mL were achieved. Both DCM and THF are ICH class II solvents with residual solvent limits of 600 and 720 ppm, respectively. Therefore, the residual solvent levels must be removed to below these levels during the secondary drying process.

[2] = Stability of AMG 397 in THF and DCM solution at 1 mg/mL, room temperature, amber and clear vials (peak area % at 280 nm); type: physicochemical; details: for Peak Area % (280 nm), AMG 397 peak RRT 1.00: 1 mg/mL, room temperature
Procedure: The stability of AMG 397 was assessed in both THF and DCM over 24 hours to cover the processing time in the solvent. The stability was assessed in both amber and clear glass vials to assess the impact of light on stability.
Light had little impact on degradation up to 72 hours in DCM.

## CO[C@]1(CN2CCN3CCCC[C@@H]3C2)/C=C/C[C@H](C)[C@@H](C)S(=O)(=O)NC(=O)c2ccc3c(c2)N(C[C@@H]2CC[C@H]21)C[C@@]1(CCCc2cc(Cl)ccc21)CO3 [AMG 397, (1S,3′R,6′R,7′R,8′E,11'S,12′R)-6-chloro-7′-methoxy-11′,12′-dinethyl-7′-((9aR)-octahydro-2H-pyrido[1,2-a]pyrazin-2-ylmethyl)-3,4-dihydro-2H,15′H-spiro[naphthalene-1,22′-[20]oxa[13]thia[1,14]diazatetracyclo [14.7.2.0^3,6.0^19,24]pentacosa[8,16,18,24]tetraen]-15′-one 13′,13′-dioxide]
[1]; Dichloromethane (DCM)
  solubility: > 100000 µg/mL
[1]; Tetrahydrofuran (THF)
  solubility: 33500 µg/mL (≈ 43800 µM)
[1]; acetone, organic solvent or mixture, read-out: Solubility
  solubility: 370 µg/mL (≈ 483 µM)
[1]; ethanol, organic solvent or mixture, read-out: Solubility
  solubility: 150 µg/mL (≈ 196 µM)
[1]; ethyl acetate, organic solvent or mixture, read-out: Solubility
  solubility: 750 µg/mL (≈ 980 µM)
[1]; methanol, organic solvent or mixture, read-out: Solubility
  solubility: 90 µg/mL (≈ 118 µM)
[1]; organic solvent or mixture, thermodynamic from solid, THF, after 24 hours, extended stirring at room temperature, solid precipitated, read-out: Final solubility in THF
  solubility at 24 h: 33500 µg/mL (≈ 43800 µM)
[1]; organic solvent or mixture, thermodynamic from solid, THF, before extended stirring, read-out: Solubility in THF, initially
  solubility: > 50000 µg/mL
[1]; organic solvent or mixture, DCM, concentrations achieved, read-out: Solubility in DCM
  solubility: > 100000 µg/mL
[1]; various ratios of THF-water
  Solubility in THF in the presence of water: drops significantly
[1]; water, read-out: Solubility
  solubility: 7 µg/mL (≈ 9.14 µM)
[2]; DCM, 2 Hrs, Amber
  Peak Area % (280 nm), AMG 397 peak RRT 1.00: 99.49%
[2]; DCM, 2 Hrs, Clear
  Peak Area % (280 nm), AMG 397 peak RRT 1.00: 99.47%
[2]; DCM, 4 Hrs, Amber
  Peak Area % (280 nm), AMG 397 peak RRT 1.00: 99.44%
[2]; DCM, 4 Hrs, Amber (second 4 Hrs column)
  Peak Area % (280 nm), AMG 397 peak RRT 1.00: 99.52%
[2]; DCM, 24 Hrs, Amber
  Peak Area % (280 nm), AMG 397 peak RRT 1.00: 99.44%
[2]; DCM, 24 Hrs, Clear
  Peak Area % (280 nm), AMG 397 peak RRT 1.00: 99.48%
[2]; DCM, 72 Hrs, Amber
  Peak Area % (280 nm), AMG 397 peak RRT 1.00: 99.13%
[2]; DCM, 72 Hrs, Clear
  Peak Area % (280 nm), AMG 397 peak RRT 1.00: 98.78%
[2]; DCM, Initial
  Peak Area % (280 nm), AMG 397 peak RRT 1.00: 99.52%
[2]; DCM, up to 24 hours at room temperature
  Stability in DCM: stable
[2]; THF, 2 Hrs, Amber
  Peak Area % (280 nm), AMG 397 peak RRT 1.00: 99.41%
[2]; THF, 2 Hrs, Clear
  Peak Area % (280 nm), AMG 397 peak RRT 1.00: 98.98%
[2]; THF, 4 Hrs, Amber
  Peak Area % (280 nm), AMG 397 peak RRT 1.00: 99.51%
[2]; THF, 4 Hrs, Clear
  Peak Area % (280 nm), AMG 397 peak RRT 1.00: 97.51%
[2]; THF, 24 Hrs, Amber
  Peak Area % (280 nm), AMG 397 peak RRT 1.00: 98.62%
[2]; THF, 24 Hrs, Clear
  Peak Area % (280 nm), AMG 397 peak RRT 1.00: 92.68%
[2]; THF, 72 Hrs, Amber
  Peak Area % (280 nm), AMG 397 peak RRT 1.00: 97.20%
[2]; THF, 72 Hrs, Clear
  Peak Area % (280 nm), AMG 397 peak RRT 1.00: 90.59%
[2]; THF, Initial
  Peak Area % (280 nm), AMG 397 peak RRT 1.00: 99.52%
[2]; THF, presence of light accelerated degradation
  Stability in THF: unstable
